Source: patent US11964990B2, “1,3,4,7-tetrahydro-2H-pyrrolo[3′,2′:5,6]pyrido[2,3-b][1,4]oxazepine bcl-2 inhibitors” (AbbVie Inc., priority 2022, dated 2024)

What was measured:
Molt-4 cells = experiment: Cell viability counter screen assay (CellTiter-Glo) in Molt-4 cells; type: cell-based; settings: 24 hours, 10% Human Serum, 50% decrease in cell viability
Text: (§1) The acute lymphoblastic leukemia (ALL) human cell line RS4;11 (ATCC, Manassas VA) was used as the primary human cell line to assess the cellular activity of compound of the present Examples in vitro and their efficacy in vivo. BH3 profiling, a mitochondrial assay that classifies blocks in the intrinsic apoptotic pathway, has shown that RS4;11 cells were highly dependent on Bcl-2 protein for survival and were sensitive to a Bcl-2 inhibitor (Blood. 2008; 111(4):2300-2309). […] The acute lymphoblastic leukemia cell line Molt-4, which is derived from immature T-lymphoid cells (T-ALL), was used as a counter screen assay.
(§2) Frozen RS4;11 or Molt-4 cells (ATCC, Manassas, VA, USA) were thawed overnight in RPMI 1640 media (Thermo Fisher Scientific, Waltham, MA, USA) supplemented with 1% penicillin/streptomycin (Thermo Fisher Scientific, Waltham, MA, USA), and 10% Human Serum (Sigma, St. Louis, MO, USA). 3000 Cells (0.1×10^6/mL) were seeded in each well of 384-well plate and were treated for 24 hours in a humidified chamber with 5% CO2. Cell viability was determined by CellTiter-Glo as described by the manufacturer's instructions (Promega Corporation, Madison, WI, USA). Responses were determined as a percentage of the control treated cells and the effective concentration (EC50) to induce a 50% decrease in cell viability were determined from sigmoidal dose-response curves using Dotmatics (Dotmatics Software Company, Bishops Stortford, Hertfordshire, England).

RS4;11 cells = experiment: Cell viability assay (CellTiter-Glo) in RS4;11 cell line; type: cell-based; settings: 24 hours, 10% Human Serum, 50% decrease in cell viability
Text: as §1, §2

Compound | EC50 (Molt-4 cells) [µM] | EC50 (RS4;11 cells) [µM]
CC1(C)CC(c2ccc(Cl)cc2)=C2CN3CCN(c4ccc(C(=O)NS(=O)(=O)c5ccc(NCC6CCOCC6)c([N+](=O)[O-])c5)c(N5CCCOc6nc7[nH]ccc7cc65)c4)C[C@H]3COCCCO[C@@H]2C1 [Example 1, 4-((4aS,10aR)-14-(4-chlorophenyl)-12,12-dimethyl-1,2,4a,5,8,9,10a,11,13,15-decahydro-7H,12H-benzo[f]pyrazino[2,1-c][1,8]dioxa[4]azacycloundecin-3(4H)-yl)-2-(3,4-dihydro-2H-pyrrolo[3′,2′:5,6]pyrido[2,3-b][1,4]oxazepin-1(7H)-yl)-N-((3-nitro-4-(((tetrahydro-2H-pyran-4-yl)methyl)amino)phenyl)sulfonyl)benzamide] | > 10 | 0.00401
CC1(C)CC(c2ccc(Cl)cc2)=C2CN3CCN(c4ccc(C(=O)NS(=O)(=O)c5ccc(NC[C@H]6CC[C@](C)(O)CO6)c([N+](=O)[O-])c5)c(N5CCCOc6nc7[nH]ccc7cc65)c4)C[C@H]3COCCCO[C@@H]2C1 [Example 2, 4-((4aS,10aR)-14-(4-chlorophenyl)-12,12-dimethyl-1,2,4a,5,8,9,10a,11,13,15-decahydro-7H,12H-benzo[f]pyrazino[2,1-c][1,8]dioxa[4]azacycloundecin-3(4H)-yl)-2-(3,4-dihydro-2H-pyrrolo[3′,2′:5,6]pyrido[2,3-h][1,4]oxazepin-1(7H)-yl)-N-((4-((((2R,5S)-5-hydroxy-5-methyltetrahydro-2H-pyran-2-yl)methyl)amino)-3-nitrophenyl)sulfonyl)benzamide] | 1.22 | 0.000651
CC1(C)CC(c2ccc(Cl)cc2)=C2CN3CCN(c4ccc(C(=O)NS(=O)(=O)c5ccc(NC[C@H]6COCCO6)c([N+](=O)[O-])c5)c(N5CCCOc6nc7[nH]ccc7cc65)c4)C[C@H]3COCCCO[C@@H]2C1 [Example 3, N-((4-((((S)-1,4-dioxan-2-yl)methyl)amino)-3-nitrophenyl)sulfonyl)-4-((4aS,10aR)-14-(4-chlorophenyl)-12,12-dimethyl-1,2,4a,5,8,9,10a,11,13,15-decahydro-7H,12H-benzo[f]pyrazino[2,1-c][1,8]dioxa[4]azacycloundecin-3(4H)-yl)-2-(3,4-dihydro-2H-pyrrolo[3′,2′:5,6]pyrido[2,3-b][1,4]oxazepin-1(7H)-yl)benzamide] | 1.41 | 0.00136
CC1(C)CC(c2ccc(Cl)cc2)=C2CN3CCN(c4ccc(C(=O)NS(=O)(=O)c5cnc(OCC6(F)CCN(C7COC7)CC6)c(Cl)c5)c(N5CCCOc6nc7[nH]ccc7cc65)c4)C[C@H]3COCCCO[C@@H]2C1 [Example 4, N-((5-chloro-6-((4-fluoro-1-(oxetan-3-yl)piperidin-4-yl)methoxy)pyridin-3-yl)sulfonyl)-4-((4aS,10aR)-14-(4-chlorophenyl)-12,12-dimethyl-1,2,4a,5,8,9,10a,11,13,15-decahydro-7H,12H-benzo[f]pyrazino[2,1-c][1,8]dioxa[4]azacycloundecin-3(4H)-yl)-2-(3,4-dihydro-2H-pyrrolo[3′,2′:5,6]pyrido[2,3-b][1,4]oxazepin-1(7H)-yl)benzamide] | 2 | 0.00235
CO[C@H]1CC[C@H](CNc2ccc(S(=O)(=O)NC(=O)c3ccc(N4CCN5CC6=C(c7ccc(Cl)cc7)CC(C)(C)C[C@H]6OCCCOC[C@@H]5C4)cc3N3CCCOc4nc5[nH]ccc5cc43)cc2[N+](=O)[O-])CC1 [Example 5, 4-((4aS,10aR)-14-(4-chlorophenyl)-12,12-dimethyl-1,2,4a,5,8,9,10a,11,13,15-decahydro-7H,12H-benzo[f]pyrazino[2,1-c][1,8]dioxa[4]azacycloundecin-3(4H)-yl)-2-(3,4-dihydro-2H-pyrrolo[3′,2′:5,6]pyrido[2,3-b][1,4]oxazepin-1(7H)-yl)-N-((4-((((1r,4r)-4-methoxycyclohexyl)methyl)amino)-3-nitrophenyl)sulfonyl)benzamide] | 4.46 | 0.00711
C[C@@H]1CO[C@@H](CNc2ccc(S(=O)(=O)NC(=O)c3ccc(N4CCN5CC6=C(c7ccc(Cl)cc7)CC(C)(C)C[C@H]6OCCCOC[C@@H]5C4)cc3N3CCCOc4nc5[nH]ccc5cc43)cc2[N+](=O)[O-])CO1 [Example 6, 4-((4aS,10aR)-14-(4-chlorophenyl)-12,12-dimethyl-1,2,4a,5,8,9,10a,11,13,15-decahydro-7H,12H-benzo[f]pyrazino[2,1-c][1,8]dioxa[4]azacycloundecin-3(4H)-yl)-2-(3,4-dihydro-2H-pyrrolo[3′,2′:5,6]pyrido[2,3-b][1,4]oxazepin-1(7H)-yl)-N-((4-((((2S,5R)-5-methyl-1,4-dioxan-2-yl)methyl)amino)-3-nitrophenyl)sulfonyl)benzamide] | 1.91 | 0.00155
CC1(C)CC(c2ccc(Cl)cc2)=C2CN3CCN(c4ccc(C(=O)NS(=O)(=O)c5cnc(OCC6(F)CCOCC6)c(Cl)c5)c(N5CCCOc6nc7[nH]ccc7cc65)c4)C[C@H]3COCCCO[C@@H]2C1 [Example 7, N-((5-chloro-6-((4-fluorotetrahydro-2H-pyran-4-yl)methoxy)pyridin-3-yl)sulfonyl)-4-((4aS,10aR)-14-(4-chlorophenyl)-12,12-dimethyl-1,2,4a,5,8,9,10a,11,13,15-decahydro-7H,12H-benzo[f]pyrazino[2,1-c][1,8]dioxa[4]azacycloundecin-3(4H)-yl)-2-(3,4-dihydro-2H-pyrrolo[3′,2′:5,6]pyrido[2,3-b][1,4]oxazepin-1(7H)-yl)benzamide] | > 10 | 0.00546
CC1(C)CC(c2ccc(Cl)cc2)=C2CN3CCN(c4ccc(C(=O)NS(=O)(=O)c5ccc(NC[C@H]6C[C@@](O)(CF)C6)c([N+](=O)[O-])c5)c(N5CCCOc6nc7[nH]ccc7cc65)c4)C[C@H]3COCCCO[C@@H]2C1 [Example 8, 4-((4aS,10aR)-14-(4-chlorophenyl)-12,12-dimethyl-1,2,4a,5,8,9,10a,11,13,15-decahydro-7H,12H-benzo[f]pyrazino[2,1-c][1,8]dioxa[4]azacycloundecin-3(4H)-yl)-2-(3,4-dihydro-2H-pyrrolo[3′,2′:5,6]pyrido[2,3-b][1,4]oxazepin-1(7H)-yl)-N-((4-((((1r,3r)-3-(fluoromethyl)-3-hydroxycyclobutyl)methyl)amino)-3-nitrophenyl)sulfonyl)benzamide] | 7.48 | 0.00361
CC1(C)CC(c2ccc(Cl)cc2)=C2CN3CCN(c4ccc(C(=O)NS(=O)(=O)c5ccc(OCC6(F)CCN(C7COC7)CC6)c(Cl)c5)c(N5CCCOc6nc7[nH]ccc7cc65)c4)C[C@H]3COCCCO[C@@H]2C1 [Example 9, N-(3-chloro-4-{[4-fluoro-1-(oxetan-3-yl)piperidin-4-yl]methoxy}benzene-1-sulfonyl)-4-[(4aS,10aR)-14-(4-chlorophenyl)-12,12-dimethyl-1,2,4a,5,8,9,11,12,13,15-decahydro-7H,10aH-pyrazino[2,1-g][1,5,8]benzodioxazacycloundecin-3(4H)-yl]-2-(3,4-dihydro-2H-pyrrolo[3′,2′:5,6]pyrido[2,3-b][1,4]oxazepin-1(7H)-yl)benzamide] | 5.59 | 0.00796
CC1(C)CC(c2ccc(Cl)cc2)=C2CN3CCN(c4ccc(C(=O)NS(=O)(=O)c5cnc(OC[C@]6(F)CC[C@@H](N7CCOCC7)CC6)c(Cl)c5)c(N5CCCOc6nc7[nH]ccc7cc65)c4)C[C@H]3COCCCO[C@@H]2C1 [Example 10, N-((5-chloro-6-(((1s,4s)-1-fluoro-4-morpholinocyclohexyl)methoxy)pyridin-3-yl)sulfonyl)-4-((4aS,10aR)-14-(4-chlorophenyl)-12,12-dimethyl-1,2,4a,5,8,9,10a,11,13,15-decahydro-7H,12H-benzo[f]pyrazino[2,1-c][1,8]dioxa[4]azacycloundecin-3(4H)-yl)-2-(3,4-dihydro-2H-pyrrolo[3′,2′:5,6]pyrido[2,3-b][1,4]oxazepin-1(7H)-yl)benzamide] | 1.56 | 0.00373
CC1(C)CC(c2ccc(Cl)cc2)=C2CN3CCN(c4ccc(C(=O)NS(=O)(=O)c5cnc(OC[C@]6(F)CC[C@H](N7CCOCC7)CC6)c(Cl)c5)c(N5CCCOc6nc7[nH]ccc7cc65)c4)C[C@H]3COCCCO[C@@H]2C1 [Example 11, N-((5-chloro-6-(((1r,4r)-1-fluoro-4-morpholinocyclohexyl)methoxy)pyridin-3-yl)sulfonyl)-4-((4aS,10aR)-14-(4-chlorophenyl)-12,12-dimethyl-1,2,4a,5,8,9,10a, 11,13,15-decahydro-7H,12H-benzo[f]pyrazino[2,1-c][1,8]dioxa[4]azacycloundecin-3(4H)-yl)-2-(3,4-dihydro-2H-pyrrolo[3′,2′:5,6]pyrido[2,3-b][1,4]oxazepin-1(7H)-yl)benzamide] | 3.71 | 0.019
CC1(C)CC(c2ccc(Cl)cc2)=C2CN3CCN(c4ccc(C(=O)NS(=O)(=O)c5ccc(NC[C@H]6CC[C@H](O)CO6)c([N+](=O)[O-])c5)c(N5CCCOc6nc7[nH]ccc7cc65)c4)C[C@H]3COCCCO[C@@H]2C1 [Example 12, 4-((4aS,10aR)-14-(4-chlorophenyl)-12,12-dimethyl-1,2,4a,5,8,9,10a,11,13,15-decahydro-7H,12H-benzo[f]pyrazino[2,1-c][1,8]dioxa[4]azacycloundecin-3(4H)-yl)-2-(3,4-dihydro-2H-pyrrolo[3′,2′:5,6]pyrido[2,3-b][1,4]oxazepin-1(7H)-yl)-N-((4-((((2R,5S)-5-hydroxytetrahydro-2H-pyran-2-yl)methyl)amino)-3-nitrophenyl)sulfonyl)benzamide] | 0.823 | 0.000966
